{"source": "patent US20120035156A1", "about": "“COMBINATION OF GLYT1 COMPOUND WITH ANTIPSYCHOTICS” (priority 2010, published 2012)", "key": {"[1]": {"test_system": "L-687,414-induced hyperlocomotion", "conditions": "mice; D. Alberati et al 2010; cited from earlier work"}, "schizophrenic patients": {"test_system": "schizophrenic patients", "conditions": "added to conventional therapy; cited from earlier work"}, "[2]": {"test_system": "L-687,414-induced hyperlocomotion", "test": "Reversal of L-687,414-induced hyperlocomotion in mice", "format": "in vivo", "conditions": "for ED50: Mus musculus, po, 1 h, read-out: ED50 of compound alone, L-687,414-induced hyperlocomotion; for reversal of hyperlocomotion induced by L-687,414 (in words): single agents, mice, L-687,414 50 mg/kg", "procedure": "RG1678, [4-(3-Fluoro-5-trifluoromethyl-pyridin-2-yl)-piperazin-1-yl]-[5-methanesulfonyl-2-((S)-2,2,2 trifluoro-1-methyl-ethoxy)-phenyl]-methanone (WO05/014563) and L-687,414, ((3R,4R)-3-amino-1-hydroxy-4-methylpyrrolidin-2-one (Tetrahedron Letters, Vol. 49, issue 42, 2008, 6079-6080) and olanzapine were synthesized according to known methods by the Medicinal Chemistry Department of F. Hoffmann-La Roche, and risperidone was purchased from Sigma. All drugs were dissolved in H2O/0.3% Tween 80 and administered orally in a volume of 10 ml/kg body weight.\nMale NMRI mice (20-30 g) supplied from Iffa Credo, Lyon, France, were housed in a vivarium at controlled temperature (20-22° C.) and a 12 hr light/dark cycle (lights on 6:00 a.m. Animals were allowed ad libitum access to food and water. The experimental procedures used in the present study received prior approval from the City of Basel Cantonal Animal Protection Committee based on adherence to federal and local regulations. Behavioral experiments were conducted during the hours of 8:00 a.m. and 2:00 p.m.\nA computerized Digiscan 16 Animal Activity Monitoring System (Omnitech Electronics, Columbus, Ohio) was used to quantify locomotor activity. Data were obtained simultaneously from eight Digiscan activity chambers placed in a soundproof room with a 12 hr light/dark cycle. Experiments were performed during the light phase between 06:30 a.m. and 5:00 p.m. Each activity monitoring chamber consisted of a Plexiglas box (41×41×28 cm; W×L×H) with sawdust bedding on the floor surrounded by invisible horizontal and vertical infrared sensor beams. The chambers were divided by a Plexiglas cross providing each mouse with 20×20 cm of moving space. Two animals per box were monitored simultaneously. Chambers were connected to a Digiscan Analyzer linked to a computer that constantly collected the beam status information. The activity detector operates by counting the number of times the beams change from uninterrupted to interrupted status or vice-versa. Records of photocell beam interruptions for individual animals were taken every five minutes over the duration of the experimental session. Mice were first treated with RG1678 at different doses or at a fixed low dose administered p.o. and, 30 minutes later, treated with an antipsychotic at different doses or at a fixed low dose administered p.o. Fifteen minutes after the antipsychotic treatment mice received a s.c. injection of 50 mg/kg of L-687,414. Mice were then transferred from their home cages to the recording chambers for a 15-min habituation phase allowing free exploration of the new environment. Horizontal activity was then recorded for a 60-min time period. The horizontal activity value for each group of animals at a given dose of RG1678 alone or in combination with an antipsychotic (y1) was expressed as % of L-687,414-induced hyperlocomotion and calculated according to the equation (((y1−vehicle horizontal activity)/(L-687,414 horizontal activity−vehicle horizontal activity))×100). For dose-response experiments, the horizontal activity value for each group of animal at a given dose of GlyT1 inhibitor or antipsychotics (y1) was expressed as a percent of L-687,414-induced hyperlocomotion and calculated according to the equation (((y1−vehicle horizontal activity)/(L-687,414 horizontal activity−vehicle horizontal activity))×100). ID50 values, defined as doses of each compound producing 50% inhibition of L-687,414-induced hyperlocomotion, were calculated by linear regression analysis of the dose-response data using an Excel-based computer curve-fitting program."}}, "note": "“And” between values parts separate entries of the source, which are not always exact repeats. Equal entries are not always repeated. Where two headings read alike, the source gives them in different places."}
{"smiles": "NCC(=O)O", "note": "[glycine]", "values": [{"measurement": "prevention of hyperlocomotion induced by L-687,414 (assay validation)", "setting": "[1]", "result": "dose-dependently blocked hyperlocomotion"}, {"measurement": "effect on positive, negative and cognitive symptoms", "setting": "schizophrenic patients", "result": "improved positive, negative and cognitive symptoms"}]}
{"smiles": "Cc1cc2c(s1)Nc1ccccc1N=C2N1CCN(C)CC1", "note": "[olanzapine, 2-methyl-4-(4-methyl-1-piperazinyl)-10H-thieno[2,3-b][1.5]benzodiazepine]", "values": [{"measurement": "ED50", "setting": "[2]", "result": 0.06, "unit": "mg/kg"}, {"measurement": "reversal of hyperlocomotion induced by olanzapine alone", "setting": "[2]; olanzapine 0.05 mg/kg p.o., male NMRI mice, L-687,414 50 mg/kg s.c.", "result": 34, "unit": "%"}]}
{"smiles": "Cc1nc2n(c(=O)c1CCN1CCC(c3noc4cc(F)ccc34)CC1)CCCC2", "note": "[risperidone, 3-[2-[4-(6-fluoro-1,2-benzisoxazol-3-yl)piperidino]ethyl]-2.methyl-6,7,8,9-tetrahydro-4H-pyrido-[1.2-a]pyrimidin-4-one]", "values": [{"measurement": "prevention of hyperlocomotion induced by L-687,414 (assay validation)", "setting": "[1]", "result": "effective in preventing this behavioral effect in a dose-dependant manner"}, {"measurement": "ED50", "setting": "[2]", "result": 0.023, "unit": "mg/kg"}, {"measurement": "reversal of hyperlocomotion induced by risperidone alone", "setting": "[2]; risperidone 0.005 mg/kg p.o., male NMRI mice, L-687,414 50 mg/kg s.c.", "result": 15, "unit": "%"}, {"measurement": "reversal of hyperlocomotion induced by L-687,414 (in words)", "setting": "[2]", "result": "dose-dependently reversed hyperlocomotion"}]}
{"smiles": "N[C@H](CO)C(=O)O", "note": "[D-serine]", "values": [{"measurement": "effect on positive, negative and cognitive symptoms", "setting": "schizophrenic patients", "result": "improved positive, negative and cognitive symptoms"}]}
{"smiles": "O=C(CCCN1CCC(O)(c2ccc(Cl)cc2)CC1)c1ccc(F)cc1", "note": "[haloperidol]", "values": [{"measurement": "prevention of hyperlocomotion induced by L-687,414 (assay validation)", "setting": "[1]", "result": "effective in preventing this behavioral effect in a dose-dependant manner"}]}
{"smiles": "O=C1CCc2ccc(OCCCCN3CCN(c4cccc(Cl)c4Cl)CC3)cc2N1", "note": "[aripiprazole, 7-{4-[4-(2,3-dichlorophenyl)piperazin-1-yl]butoxy}-3,4-dihydroquinolin-2(1H)-one]", "values": [{"measurement": "prevention of hyperlocomotion induced by L-687,414 (assay validation)", "setting": "[1]", "result": "effective in preventing this behavioral effect in a dose-dependant manner"}]}
{"smiles": "C[C@H](Oc1ccc(S(C)(=O)=O)cc1C(=O)N1CCN(c2ncc(C(F)(F)F)cc2F)CC1)C(F)(F)F", "note": "[RG1678]", "values": [{"measurement": "ED50", "setting": "[2]; male NMRI mice, p.o., L-687,414 50 mg/kg s.c., horizontal activity recorded 1 hour", "result": 0.76, "unit": "mg/kg"}, {"measurement": "reversal of hyperlocomotion induced by RG1678 alone", "setting": "[2]; RG1678 0.6 mg/kg p.o., male NMRI mice, L-687,414 50 mg/kg s.c.", "result": "19% and 21%"}, {"measurement": "reversal of hyperlocomotion induced by L-687,414 (in words)", "setting": "[2]", "result": "dose-dependently reversed hyperlocomotion"}]}
{"smiles": "CNCC(=O)O", "note": "[sarcosine]", "values": [{"measurement": "effect on positive, negative and cognitive symptoms", "setting": "schizophrenic patients", "result": "improved positive, negative and cognitive symptoms"}]}
